Test results taken from US6866861B1, “Method and composition for enhancing milk component concentrations” (Land O'Lakes, Inc., priority 1999, dated 2005).

System: cows
Assay: Abomasal infusion of glycerol in cows, different cows (Example 5)
Assay type: in vivo, cow
Conditions: for Fat / Lactose / Total Solids / True Protein: 150 g/cow/day abomasal, average of 3 cows
Experimental: To determine the weight percent total solids, wet basis, in a sample, the actual weight of total solids is determined by analyzing the sample in accordance with Method #925.23 (33.2.09) of Official Methods of Analysis, Association of Official Analytical Chemists (AOAC) (16th Ed., 1995). The weight percent total solids, wet basis, is then calculated by dividing the actual weight of total solids by the actual weight of the sample. The weight percent of true protein, wet basis, for a particular sample is calculated after first determining the wet basis weight percent of total Kjeldahl nitrogen and the wet basis weight percent of non-protein nitrogen in the sample. The wet basis weight percent of total Kjeldahl nitrogen in the sample is determined using the method referenced above. The wet basis weight percent of non-protein nitrogen (NPN) in the sample is determined in accordance with Method #991.21 (33.2.12) of Official Methods of Analysis, Association of Official Analytical Chemists (AOAC) (16th Ed., 1995). The weight percent of true protein, wet basis, in the sample is then determined by subtracting the wet basis weight percent of non-protein nitrogen in the sample from the wet basis weight percent of total Kjeldahl nitrogen in the sample. To determine the weight percent lactose, wet basis, in a liquid sample, the weight of the liquid sample is first determined. The actual weight of lactose in the liquid sample may then be determined using analysis kit number 176-303, that is available from Boehringer-Mannheim of Indianapolis, Ind. in accordance with the procedural instructions included with analysis kit number 176-303. The weight percent lactose, wet basis, in the liquid sample is then calculated by dividing the actual weight of lactose in the liquid sample by the actual weight of the liquid sample. To determine the weight percent fat, wet basis, in a sample, the actual weight of fat in the sample is determined in accordance with Method #974.09 (33.7.18) of Official Methods of Analysis, Association of Official Analytical Chemists (AOAC) (16th Ed., 1995). The weight percent fat, wet basis, is then calculated by dividing the actual weight of fat in the sample by the actual weight of the sample. In this example, glycerol was abomasally infused into three different cows at a rate of 150 grams per cow per day during a 14 day test period. The cows used in this Example were different from the cows used in Example 4. The rations provided to the cows during the period extending from day 0, prior to abomasal infusion of glycerol, through day 14 of the test period were the same. The only difference in feeding of the cows between day 0 and days 1-14 of the test period were that during days 1-14 the cows were abomasally infused with the dosage of 150 grams of glycerol per cow per day. The glycerol was not combined with any other materials prior to being abomasally infused into the cattle. Milk from the three cows was collected and analyzed prior to infusion (on day 0) and also was collected and analyzed on the third, seventh and fourteenth day of the test period. The results presented in Table 5 below for each milk component for each particular day are averages for the milk collected from the three different cows. The net change for the different milk components presented in Table 5 was calculated by averaging the results of days 3, 7 and 14 for a particular milk component and subtracting the results presented for day 0 for the particular milk component.

[1] = milk, average of days 3, 7, 14 minus day 0

OCC(O)CO [glycerol]
weight percent of fat, true protein, lactose, and total solids in the milk (conclusion in words) (abomasal infusion, 14 day test period): net increase | Fat (milk, Day 3): 3.39 Wt % | Lactose (milk, Day 3): 4.86 Wt. % | Total Solids (milk, Day 3): 12.04 Wt. % | True Protein (milk, Day 3): 3.04 Wt. % | Fat (milk, Day 7): 3.25 Wt % | Lactose (milk, Day 7): 5.19 Wt. % | Total Solids (milk, Day 7): 12.17 Wt. % | True Protein (milk, Day 7): 2.98 Wt. % | Fat (milk, Day 14): 3.32 Wt % | Lactose (milk, Day 14): 4.87 Wt. % | Total Solids (milk, Day 14): 11.99 Wt. % | True Protein (milk, Day 14): 3.05 Wt. % | Fat, Net Change [1]: +0.25 Wt % | Lactose, Net Change [1]: +0.08 Wt. % | Total Solids, Net Change [1]: +0.44 Wt. % | True Protein, Net Change [1]: +0.10 Wt. %
